Patent US12103915B2, “TEAD inhibitors and methods of uses thereof” (Insilico Medicine IP Limited, priority 2022, dated 2024)

What was measured:
Type in all cases: binding
TEAD2 = TEAD2 (Homo sapiens, UniProt Q15562); assay: Thermal shift assay TEAD2
Experimental: (§1) Example B: Thermal Shift Assay
(§2) 1) Prepare a fresh dilution of Protein Thermal Shift™ Dye (Applied Biosystems, 1000×) to 8× by […].
(§3) 2) To ensure the same DMSO concentration, the compounds were diluted as follows: Prepare 10 mM stock solution of compounds;
(§4) The final DMSO concentration was 0.1%
(§5) 10 μM: Diluting stock solution to 100 μM by using PBS.
(§6) 1 μM: Diluting stock solution to 1 mM by using DMSO, then dilute to 10 μM by using PBS.
(§7) TEAD1: the stock concentration was 2.9 mg/ml; the final concentration was 0.2 mg/ml. TEAD2: the stock concentration was 1.8 mg/ml; the final concentration was 0.08 mg/ml.
(§8) 4) Place the appropriate reaction plate or tubes on ice, then prepare the protein melt reactions:
(§9) 5) Pipet each reaction up and down 10 times to mix well.
(§10) 6) Seal the plate with MicroAmp™ Optical Adhesive Film, spin it at 1000 rpm for 1 minute.
(§11) 7) Set up and run on the qPCR instrument.
(§12) Using thermal Shift™ Software v1.3 to analysis.

TEAD1 = TEAD1 (Homo sapiens, UniProt P28347); assay: Thermal shift assay TEAD1
Experimental: as §1, §2, §3, §4, §5, §6, §7, §8, §9, §10, §11, §12

TEAD3 = TEAD3 (Homo sapiens, UniProt Q99594); assay: Thermal shift assay TEAD3
Experimental: as §1, §2, §3, §4, §5, §6
TEAD3: the stock concentration was 2.4 mg/ml; the final concentration was 0.1 mg/ml.
as §8, §9, §10, §11, §12

TEAD4 = TEAD4 (Homo sapiens, UniProt Q15561); assay: Thermal shift assay TEAD4
Experimental: as §1, §2, §3, §4, §5, §6
TEAD4: the stock concentration was 2.3 mg/ml; the final concentration was 0.1 mg/ml.
as §8, §9, §10, §11, §12

Sequence of TEAD3 (Q99594 whole entry, species assumed): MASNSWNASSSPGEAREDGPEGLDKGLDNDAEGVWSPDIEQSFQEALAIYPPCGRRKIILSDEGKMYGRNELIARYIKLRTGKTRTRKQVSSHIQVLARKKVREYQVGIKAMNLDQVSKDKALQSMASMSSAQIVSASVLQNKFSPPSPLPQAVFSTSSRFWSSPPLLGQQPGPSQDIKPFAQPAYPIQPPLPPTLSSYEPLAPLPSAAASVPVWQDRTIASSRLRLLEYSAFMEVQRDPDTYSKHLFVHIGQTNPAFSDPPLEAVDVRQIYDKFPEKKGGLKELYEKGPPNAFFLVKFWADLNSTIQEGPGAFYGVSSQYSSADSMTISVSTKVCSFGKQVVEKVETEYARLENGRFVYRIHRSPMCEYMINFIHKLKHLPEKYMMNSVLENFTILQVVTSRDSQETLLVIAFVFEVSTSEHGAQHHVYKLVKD
Sequence of TEAD1 (P28347 whole entry, species assumed): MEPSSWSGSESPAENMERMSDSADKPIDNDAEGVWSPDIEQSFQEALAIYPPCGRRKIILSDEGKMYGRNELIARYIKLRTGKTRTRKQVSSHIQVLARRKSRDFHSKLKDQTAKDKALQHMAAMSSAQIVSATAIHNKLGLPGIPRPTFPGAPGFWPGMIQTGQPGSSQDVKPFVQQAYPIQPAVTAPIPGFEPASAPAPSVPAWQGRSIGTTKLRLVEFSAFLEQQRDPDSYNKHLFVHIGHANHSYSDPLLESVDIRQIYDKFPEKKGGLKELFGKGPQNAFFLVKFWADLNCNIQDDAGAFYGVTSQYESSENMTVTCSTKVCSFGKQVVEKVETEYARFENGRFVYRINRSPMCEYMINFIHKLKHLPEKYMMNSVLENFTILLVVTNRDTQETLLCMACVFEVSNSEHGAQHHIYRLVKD
Sequence of TEAD2 (Q15562 whole entry, species assumed): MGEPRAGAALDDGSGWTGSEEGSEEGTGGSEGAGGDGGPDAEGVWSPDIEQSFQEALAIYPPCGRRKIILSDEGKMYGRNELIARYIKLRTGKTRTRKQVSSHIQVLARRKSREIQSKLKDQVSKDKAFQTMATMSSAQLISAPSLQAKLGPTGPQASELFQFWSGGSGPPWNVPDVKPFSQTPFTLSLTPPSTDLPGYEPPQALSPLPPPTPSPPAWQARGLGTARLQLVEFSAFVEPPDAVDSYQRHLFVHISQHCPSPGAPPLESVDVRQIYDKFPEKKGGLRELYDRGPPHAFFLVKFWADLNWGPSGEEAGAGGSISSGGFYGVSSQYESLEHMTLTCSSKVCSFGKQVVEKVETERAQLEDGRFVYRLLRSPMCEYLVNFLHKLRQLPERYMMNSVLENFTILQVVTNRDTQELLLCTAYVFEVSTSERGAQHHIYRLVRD
Sequence of TEAD4 (Q15561 whole entry, species assumed): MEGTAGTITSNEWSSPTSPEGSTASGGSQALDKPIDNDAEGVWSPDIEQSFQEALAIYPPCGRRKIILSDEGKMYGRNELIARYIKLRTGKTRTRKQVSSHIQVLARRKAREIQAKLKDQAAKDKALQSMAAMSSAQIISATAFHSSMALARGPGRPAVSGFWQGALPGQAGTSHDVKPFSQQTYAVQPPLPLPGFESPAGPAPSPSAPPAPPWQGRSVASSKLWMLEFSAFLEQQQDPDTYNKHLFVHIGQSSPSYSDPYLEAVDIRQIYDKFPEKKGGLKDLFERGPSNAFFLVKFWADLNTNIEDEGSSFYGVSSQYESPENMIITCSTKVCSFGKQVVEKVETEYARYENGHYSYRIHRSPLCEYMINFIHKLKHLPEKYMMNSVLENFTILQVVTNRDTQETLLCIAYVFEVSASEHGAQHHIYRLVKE

Row | Structure (SMILES) | TEAD2 ΔTm (TEAD2) | TEAD1 ΔTm (TEAD1) | TEAD3 ΔTm (TEAD3) | TEAD4 ΔTm (TEAD4)
1 | CNS(=O)(=O)[C@@H]1CC1c1cc(-c2ccc(C(F)(F)F)cc2)cc2cn(C)nc12 (mixture of isomers) [Example 50] | 2.5 °C | 4.2 °C | 0.7 °C | 5.7 °C
2 | O=C(O)[C@@H]1CC1c1cc(Oc2ccc(C(F)(F)F)cc2)cn2ccnc12 (mixture of isomers) [Example 83] | 8.0 °C | 2.7 °C | 1.4 °C | 3.6 °C
3 | CNC(=O)[C@@H]1CC1c1cc(Oc2ccc(C(F)(F)F)cc2)cn2ccnc12 (mixture of isomers) [Example 84] | 6.5 °C | 1.0 °C | 1.2 °C | 3.1 °C
4 | Cn1cc2cc(Oc3ccc(C(F)(F)F)cc3)cc(C3C[C@H]3C(=O)N3CC4CC3[C@H](O)[C@H]4O)c2n1 (single isomer, unassigned) [Example 106] | 9.9 °C | 6.4 °C | 2.2 °C | 8.5 °C
5 | Cn1cc2cc(Oc3ccc(C(F)(F)F)cc3)cc(C3C[C@H]3C(=O)NC[C@H]3C[C@@H](O)[C@@H](O)C3O)c2n1 (single isomer, unassigned) [Example 107] | 4.9 °C | 5.0 °C | 1.1 °C | 6.1 °C
6 | Cn1cc2cc(Oc3ccc(C(F)(F)F)cc3)cc(C3C[C@H]3C(=O)N3CCS(=O)(=O)CC3)c2n1 (single isomer, unassigned) [Example 110] | 5.2 °C | 4.1 °C | 1.0 °C | 4.1 °C
7 | Cn1cc2cc(Oc3ccc(C(F)(F)F)cc3)cc(C3C[C@H]3C(=O)N3CCP(C)(=O)CC3)c2n1 (single isomer, unassigned) [Example 111] | 3.7 °C | 3.0 °C | 0.7 °C | 3.2 °C
8 | Cn1cc2cc(Oc3ccc(C(F)(F)F)cc3)cc(C3C[C@H]3C(=O)N3CC(C(=O)O)C3)c2n1 (single isomer, unassigned) [Example 113] | 5.7 °C | 4.1 °C | 1.5 °C | 4.2 °C
9 | Cn1cc2cc(Oc3ccc(C(F)(F)F)cc3)cc(C3C[C@H]3C(=O)N3CCOC4(COC4)C3)c2n1 (single isomer, unassigned) [Example 114] | 7.1 °C | 4.6 °C | 1.5 °C | 7.1 °C
10 | CN1CCC2(CN(C(=O)[C@@H]3CC3c3cc(Oc4ccc(C(F)(F)F)cc4)cc4cn(C)nc34)C2)C1=O (single isomer, unassigned) [Example 115] | 3.5 °C | 4.2 °C | 1.3 °C | 3.5 °C
11 | Cn1cc2cc(Oc3ccc(C(F)(F)F)cc3)cc(C3C[C@H]3C(=O)N3C4COCC3CC(O)C4)c2n1 (single isomer, unassigned) [Example 116a] | 6.1 °C | 4.6 °C | 1.8 °C | 6.1 °C
12 | Cn1cc2cc(Oc3ccc(C(F)(F)F)cc3)cc(C3C[C@H]3C(=O)N3C4COCC3CC(O)C4)c2n1 (single isomer, unassigned) [Example 116b] | 5.3 °C | 5.5 °C | 2.2 °C | 7.1 °C
13 | Cn1cc2nc(Oc3ccc(C(F)(F)F)cc3)cc([C@@H]3C[C@H]3C(=O)N3C4COCC3C4)c2n1 (single isomer, unassigned) [Example 118] | 6.2 °C | 4.6 °C | 1.6 °C | 6.1 °C
14 | Cn1cc2nc(Oc3ccc(C(F)(F)F)cc3)cc([C@@H]3C[C@H]3C(=O)N3C[C@H]4C[C@@H]3CO4)c2n1 (single isomer, unassigned) [Example 119] | 6.1 °C | 4.2 °C | 1.6 °C | 4.7 °C
15 | Cn1cc2nc(Oc3ccc(C(F)(F)F)cc3)cc([C@@H]3C[C@H]3C(=O)N3C[C@@H]4C[C@H]3CO4)c2n1 (single isomer, unassigned) [Example 120] | 6.5 °C | 4.1 °C | 1.2 °C | 4.5 °C
16 | Cn1cc2cc(Oc3ccc(C(F)(F)F)cc3)cc([C@@H]3C[C@H]3C(=O)N3CC4CC3CN4)c2n1 (single isomer, unassigned) [Example 122] | 6.5 °C | 5.9 °C | 1.8 °C | 4.9 °C
17 | Cn1cc2cc(Oc3cc(F)ccc3C(F)(F)F)cc([C@@H]3C[C@H]3C(=O)N3CC(O)C3)c2n1 (single isomer, unassigned) [Example 133] | 8.5 °C | 1.1 °C | 0.3 °C | 4.9 °C
18 | Cn1cc2cc(Oc3ccc(C(F)(F)F)cc3)cc([C@@H]3C[C@H]3C(=O)N3CCC34CC(O)C4)c2n1 (single isomer, unassigned) [Example 136] | 12.4 °C | 7.1 °C | 1.7 °C | 10.3 °C
19 | Cn1cc2cc(Oc3cc(F)c(F)c(F)c3)cc([C@@H]3C[C@H]3C(=O)N3C[C@@H]4C[C@H]3C[C@@H]4O)c2n1 (single isomer, unassigned) [Example 138] | 6.8 °C | 4.2 °C | 2.3 °C | 6.4 °C
20 | CNS(=O)(=O)CCc1cc(N(C)c2ccc(C(F)(F)F)cc2)cc2cn(C)nc12 [Example 49] | 2.6 °C | 3.2 °C | 0.1 °C | 5.1 °C

Second part, the compound after the results:

Row | TEAD2 ΔTm (TEAD2) | TEAD1 ΔTm (TEAD1) | TEAD3 ΔTm (TEAD3) | TEAD4 ΔTm (TEAD4) | Structure (SMILES)
21 | 13.7 °C | 11.3 °C | 2 °C | 11.4 °C | Cn1cc2cc(Oc3ccc(C(F)(F)F)cc3)cc([C@@H]3C[C@H]3C(=O)O)c2n1 (single isomer, unassigned) [Example 16a]
22 | 14.9 °C | 12.1 °C | 15 °C | 12.5 °C | Cn1cc2cc(Oc3ccc(C(F)(F)F)cc3)cc([C@H]3C[C@@H]3C(=O)O)c2n1 (single isomer, unassigned) [Example 16b]
23 | 10.3 °C | 5.4 °C | 0.6 °C | 4.7 °C | [2H]C([2H])([2H])n1cc2cc(Oc3ccc(C(F)(F)F)cc3)cc([C@@H]3C[C@H]3C(=O)NC)c2n1 (single isomer, unassigned) [Example 76a]
24 | 15.4 °C | 11.5 °C | 10.9 °C | 12.6 °C | [2H]C([2H])([2H])n1cc2cc(Oc3ccc(C(F)(F)F)cc3)cc([C@H]3C[C@@H]3C(=O)NC)c2n1 (single isomer, unassigned) [Example 76b]
25 | 10.1 °C | 4.9 °C | 1.0 °C | 6.8 °C | Cn1cc2cc(O[C@H]3CC[C@@H](C(F)(F)F)CC3)cc([C@@H]3C[C@H]3C(=O)N3CC(O)C3)c2n1 (single isomer, unassigned) [Example 87a]
26 | 2.6 °C | −0.4 °C | 0.0 °C | 0.3 °C | Cn1cc2cc(O[C@H]3CC[C@@H](C(F)(F)F)CC3)cc([C@H]3C[C@@H]3C(=O)N3CC(O)C3)c2n1 (single isomer, unassigned) [Example 87b]
27 | 1.5 °C | −0.3 °C | 0.1 °C | 0.1 °C | Cn1cc2cc(Oc3ccc(C(F)(F)F)cn3)cc([C@@H]3C[C@H]3C(=O)N3CC(O)C3)c2n1 (single isomer, unassigned) [Example 88a]
28 | 3.3 °C | 0.0 °C | 0.2 °C | −0.2 °C | Cn1cc2cc(Oc3ccc(C(F)F)cc3)cc([C@@H]3C[C@H]3C(=O)N3CC(O)C3)c2n1 (single isomer, unassigned) [Example 89a]
29 | 2.6 °C | −0.2 °C | 0.2 °C | 0.6 °C | Cn1cc2cc(Oc3ccc(F)c(F)c3)cc([C@@H]3C[C@H]3C(=O)N3CC(O)C3)c2n1 (single isomer, unassigned) [Example 90a]
30 | 2.2 °C | 1.8 °C | 0.9 °C | 3.4 °C | Cn1cc2nc(Oc3ccc(C(F)(F)F)cc3)nc([C@H]3C[C@@H]3C(=O)N3CC(O)C3)c2n1 (single isomer, unassigned) [Example 109b]
31 | 9.5 °C | 7.2 °C | 2.0 °C | 8.6 °C | CO[C@H]1CN(C(=O)[C@@H]2C[C@H]2c2cc(Oc3ccc(C(F)(F)F)cc3)cc3cn(C)nc23)C[C@@H]1O (single isomer, unassigned) [Example 112a]
